Results on one compound are retold here after patent EP2592154A1, “Immobilization products and methods for the identification of histone demethylase interacting molecules and for the purification of histone demethylase proteins” (CELLZOME AG, priority 2011, dated 2013).

For this test, the target named is T1, endogenous UTY (Homo sapiens, UniProt O14607).
T1 construct: endogenous UTY; endogenous in cells; host or cells: THP-1 nuclear extract mixed 1:1 with HEK293 lysate
As to the kind of experiment: Bead competition binding assay using immobilized example 1, concentration response curve (HEK293/THP-1 lysate mix). The conditions noted are these: competition of binding to immobilized example 1, 0.156-40 µM, HEK293 lysate mixed 1:1 with THP-1 nuclear extract. How it is done: Then the affinity matrix with the immobilized example 1 was added to capture proteins that were not interacting with the previously added free reference compound. Beads were separated from the lysate and bead bound proteins were eluted in SDS sample buffer and subsequently separated by SDS-Polyacrylamide gel electrophoresis. The gel was stained with colloidal Coomassie and stained areas of each gel lane were cut out and subjected to in-gel proteolytic digestion with trypsin. Peptides originating from the different gel areas were labeled with isobaric tagging reagents (TMT reagents, Thermofisher) as shown in Table 6.
JMJD3 DNA encoding the catalytic domain (residues 1141-1682, lacking residues 1637-1675; GenBank BC009994) was amplified by PCR and sub cloned into pCDNA3.1 (+) (Invitrogen, V79020) using BamHI and EcoRI A Flag tag was included in the 5' primer, downstream of the BamHI cloning site. […]
HEK293 cells were homogenized in a Potter S homogenizer in lysis buffer: 50 mM Tris-HCl, 0.8% NP40, 5% glycerol, 150 mM NaCl, 1.5 mM MgCl2, 25 mM NaF, 1 mM sodium vanadate, 1 mM DTT, pH 7.5. […] The supernatant was transferred again to a fresh 50 ml falcon tube, the protein concentration was determined by a Bradford assay (BioRad) and samples containing 50 mg of protein per aliquot were prepared. […]

T1 sequence (O14607 whole entry): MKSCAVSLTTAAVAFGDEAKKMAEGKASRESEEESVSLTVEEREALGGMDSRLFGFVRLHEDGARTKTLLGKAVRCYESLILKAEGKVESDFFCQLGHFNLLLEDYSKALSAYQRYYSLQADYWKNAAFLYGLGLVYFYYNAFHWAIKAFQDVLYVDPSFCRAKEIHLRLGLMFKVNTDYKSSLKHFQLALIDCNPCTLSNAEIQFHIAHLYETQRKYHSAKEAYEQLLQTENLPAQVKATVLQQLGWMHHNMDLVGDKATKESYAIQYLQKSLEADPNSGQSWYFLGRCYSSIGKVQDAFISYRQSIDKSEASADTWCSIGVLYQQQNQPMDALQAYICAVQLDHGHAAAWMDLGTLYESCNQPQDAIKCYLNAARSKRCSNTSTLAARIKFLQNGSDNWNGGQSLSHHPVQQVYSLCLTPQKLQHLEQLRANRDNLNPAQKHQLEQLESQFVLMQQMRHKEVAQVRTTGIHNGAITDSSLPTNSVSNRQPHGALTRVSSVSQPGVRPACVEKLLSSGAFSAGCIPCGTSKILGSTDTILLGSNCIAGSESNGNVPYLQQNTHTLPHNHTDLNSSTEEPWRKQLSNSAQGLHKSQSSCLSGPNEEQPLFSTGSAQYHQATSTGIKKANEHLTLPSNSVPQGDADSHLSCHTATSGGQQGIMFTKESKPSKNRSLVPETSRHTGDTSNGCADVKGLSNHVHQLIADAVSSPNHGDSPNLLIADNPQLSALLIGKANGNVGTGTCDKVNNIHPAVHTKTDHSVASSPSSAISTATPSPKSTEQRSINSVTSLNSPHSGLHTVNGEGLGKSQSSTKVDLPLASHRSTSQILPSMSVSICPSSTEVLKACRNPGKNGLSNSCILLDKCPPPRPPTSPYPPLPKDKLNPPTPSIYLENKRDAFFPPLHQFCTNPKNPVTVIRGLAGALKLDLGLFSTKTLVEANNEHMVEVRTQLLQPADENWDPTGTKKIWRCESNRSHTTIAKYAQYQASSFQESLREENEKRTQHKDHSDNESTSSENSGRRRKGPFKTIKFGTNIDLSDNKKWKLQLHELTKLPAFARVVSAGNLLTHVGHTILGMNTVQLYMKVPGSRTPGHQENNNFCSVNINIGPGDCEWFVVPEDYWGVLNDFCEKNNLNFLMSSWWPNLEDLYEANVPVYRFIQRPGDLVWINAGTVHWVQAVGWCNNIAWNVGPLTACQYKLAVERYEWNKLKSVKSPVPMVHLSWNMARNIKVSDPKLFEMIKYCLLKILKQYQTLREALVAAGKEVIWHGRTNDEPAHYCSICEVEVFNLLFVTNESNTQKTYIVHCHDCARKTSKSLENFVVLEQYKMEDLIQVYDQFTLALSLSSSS

For the compound `O=C(O)CCNc1cc(N2CCc3ccccc3CC2)nc(-c2ccccn2)n1` [Reference example 2, N-[2-(2-pyridinyl)-6-(1,2,4,5-tetrahydro-3H-3-benzazepin-3-yl)-4-pyrimidinyl]-β-alanine], the concentration for half-maximal inhibition (IC50) – broadly, the point on the concentration scale where inhibition reaches its midpoint – stood at 1.4 µM.
